Like-named read-outs stand apart in the source and are kept apart here.
Molecular target: T1, human α7 nAChR stably expressed in a HEK cell line (with human RIC-3) (Homo sapiens, UniProt P36544)
T1 construct: PrecisION hnAChR α7/RIC-3
Assay: Automated patch-clamp electrophysiology functional assay (Assay A), IonFlux HT, whole-cell population patch
Format: cell-based
Experimental: The α7 nAChR positive allosteric modulator (PAM) activity of the present compounds may be tested using assays known in the art. The α7 nAChR PAMs described herein have activities in an automated patch-clamp electrophysiology functional assay as described in the examples. The assay was performed using the IonFlux HT in a whole-cell, population patch configuration. See Golden et al. Assay Drug Dev. Technol. (2011) 9:608-619. The compounds were assessed for their ability to modulate the function of the human α7 nAChR stably expressed in a HEK cell line both in the presence, and in the absence of the natural α7 agonist acetylcholine. By performing a series of such measurements at different concentrations, the effective concentration of the α7 nAChR PAMs (EC50) was determined. See Spencer et al. Assay Drug Dev. Technol. (2012) 10:313-324.
Direct activation of α7 (agonism), and potentiation of 5 acetylcholine-evoked α7 currents was determined as follows:
Automated Patch-Clamp Electrophysiology Functional Assay (Assay A)
Automated patch-clamp electrophysiology was performed using the IonFlux HT (Fluxion Biosciences Inc., San Francisco, Calif.) in the whole-cell, population patch configuration. Test compounds were assessed for their ability to modulate the function of the α7 nicotinic acetylcholine receptor both in the presence, and in the absence of the natural α7 agonist acetylcholine. A HEK cell line stably expressing both human RIC-3 and human α7 (PrecisION hnAChR α7/RIC-3, Eurofins Pharma, St. Charles, Mo.) was cultured in 175 cm^2 triple-layer tissue culture flasks to no more than 90% confluency in DMEM/F-12 growth media supplemented with 10% heat-inactivated fetal bovine serum, 1% non-essential amino acids, 0.625 μg/mL Puromycin, and 400 μg/mL Geneticin. Immediately prior to assay, cells were detached by first aspirating growth media, rinsing with Dulbecco's phosphate buffered saline, and then adding 10 mL of Accutase (Innovative Cell Technologies, San Diego, Calif.) to the flask and then incubating at 37° C. for 5 minutes. Detached cells were then recovered by the addition of 40 mL of CHO-serum-free media supplemented with 25 mM HEPES, and rocked gently in a 50 mL conical tube for 20 minutes prior to patch-clamp assay. After recovery, cells were pelleted by centrifugation at 1,000 RPM for 1 minute in a compact bench top centrifuge; recovery media was aspirated and cells were resuspended in external recording solution (150 mM NaCl, 5 mM KCl, 2 mM CaCl2, 1 mM MgCl2, 10 mM HEPES, 12 mM dextrose) to a density of 5.0×10^6 cells/mL. The cell suspension was added to the cell inlet wells on an IonFlux HT population patch plate which had previously been rinsed and primed with deionized H2O. Test compounds were serially diluted in DMSO and then resuspended to the final test concentration in external recording solution, with, or without […] acetylcholine added to the external recording solution; test compounds were then transferred to the IonFlux HT population patch plate. Internal recording solution (110 mM TrisPO4, 28 mM TrisBase, 0.1 mM CaCl2, 2 mM MgCl2, 11 mM EGTA, 4 mM MgATP) was added to the internal recording solution inlet wells on the IonFlux HT patch plate previously loaded with cells and test compounds, and the plate loaded into the IonFlux HT instrument. A protocol was executed on the IonFlux HT to trap the cells, break into the cells, and establish the whole-cell recording configuration; cells were voltage-clamped at a holding potential of −60 mV for the duration of the experiment, all experiments were conducted at room temperature, and the IonFlux HT injection pressure was 8 psi for solution applications. Upon establishing the whole-cell configuration, external recording solution was perfused into the recording chambers for 120 seconds and then 40 μM acetylcholine was applied for 1 second and immediately washed off with external recording solution for 60 seconds. […]

[1] = automated patch-clamp electrophysiology functional assay (Assay A), potency class by EC50, read-out: α7 nAChR Potency
[2] = electrophysiology EC50, HEK cells expressing human α7/RIC-3, 40 μM acetylcholine, holding potential −60 mV, room temperature, read-out: α7 nAChR EC50

T1 sequence (P36544 23-502): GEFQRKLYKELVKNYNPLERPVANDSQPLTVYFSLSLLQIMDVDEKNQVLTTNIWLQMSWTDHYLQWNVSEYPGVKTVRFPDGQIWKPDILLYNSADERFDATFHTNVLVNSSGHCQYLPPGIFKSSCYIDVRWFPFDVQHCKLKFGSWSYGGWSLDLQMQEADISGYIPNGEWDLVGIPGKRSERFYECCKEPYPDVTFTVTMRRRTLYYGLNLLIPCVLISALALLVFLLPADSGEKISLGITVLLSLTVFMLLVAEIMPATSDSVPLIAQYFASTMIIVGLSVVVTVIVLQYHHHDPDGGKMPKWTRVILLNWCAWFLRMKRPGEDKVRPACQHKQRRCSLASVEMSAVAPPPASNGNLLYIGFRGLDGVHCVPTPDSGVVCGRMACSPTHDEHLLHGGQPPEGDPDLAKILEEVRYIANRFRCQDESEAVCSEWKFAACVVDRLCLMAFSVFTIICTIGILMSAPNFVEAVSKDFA

EC50 [1]	EC50 [2]	SMILES
500 to 5000 nM		NS(=O)(=O)c1ccc(C2C(c3ncc(-c4ccccc4)o3)C2(F)F)cc1 (racemic) [Example M1]
100 to 500 nM		NS(=O)(=O)c1ccc(C2C(c3nc(C4CCCC4)no3)C2(Cl)Cl)cc1 (racemic) [Example M5]
500 to 5000 nM	2900 nM	CC1(C)C(c2ccc(S(N)(=O)=O)cc2)C1c1cc(-c2cccc(F)c2)on1 (racemic) [Example M6]
500 to 5000 nM	1100 nM	CC1(C)[C@@H](c2ccc(S(C)(=O)=O)cc2)[C@@H]1c1nc(-c2ccccc2)no1 (relative stereo) [Example 33]
100 to 500 nM	470 nM	NS(=O)(=O)c1ccc([C@@H]2[C@@H](c3nc(-c4cccc(F)c4)no3)C2(Cl)Cl)cc1 (relative stereo) [Example 36, 4-{trans-2,2-Dichloro-3-[3-(3-fluorophenyl)-1,2,4-oxadiazol-5-yl]cyclopropyl}benzenesulfonamide]
500 to 5000 nM	1700 nM	CC1C(c2ccc(S(N)(=O)=O)cc2)C1c1nc(-c2ccccc2)no1 (single isomer, unassigned) [Example M2]
≤ 100 nM	83 nM	NS(=O)(=O)c1ccc(C2C(c3nc(-c4ccccc4)no3)C23CCCC3)cc1 (single isomer, unassigned) [Example M3]
100 to 500 nM	210 nM	NS(=O)(=O)c1ccc(C2CC2c2nc(-c3cccc(F)c3)ns2)cc1 (single isomer, unassigned) [Example M4]
500 to 5000 nM		CC1(C)C(c2nc(-c3ccccc3)no2)C1c1ccc(S(N)(=O)=O)cc1F (single isomer, unassigned) [Example M7]
100 to 500 nM	120 nM	CC1C(c2ccc(S(N)(=O)=O)cc2)C1c1nc(-c2ccccc2)no1 (single isomer, unassigned; diastereomer 4) [Example 22, 4-(2-Methyl-3-(3-phenyl-1,2,4-oxadiazol-5-yl)cyclopropyl)benzenesulfonamide, diastereomer 4]
500 to 5000 nM	860 nM	CC1(C)C(c2ccc(S(N)(=O)=O)c(F)c2)C1c1nc(-c2ccccc2)no1 (single isomer, unassigned; enantiomer a) [Example 32, 4-[trans-2,2-Dimethyl-3-(3-phenyl-1,2,4-oxadiazol-5-yl)cyclopropyl]-2-fluorobenzenesulfonamide, enantiomer A]
100 to 500 nM	380 nM	CC(C)c1nsc(C2CC2c2ccc(S(N)(=O)=O)cc2)n1 (single isomer, unassigned; enantiomer b) [Example 18, 4-{trans-2-[3-(Propan-2-yl)-1,2,4-thiadiazol-5-yl]cyclopropyl}benzenesulfonamide, enantiomer B]
500 to 5000 nM	4100 nM	Cc1ccc(F)cc1-c1noc([C@H]2[C@H](c3ccc(S(N)(=O)=O)cc3)C2(C)C)n1 [Example 1, 4-((1S,3S)-3-(3-(5-Fluoro-2-methylphenyl)-1,2,4-oxadiazol-5-yl)-2,2-dimethylcyclopropyl)-benzenesulfonamide]
100 to 500 nM		CC1(C)[C@@H](c2ccc(S(N)(=O)=O)cc2)[C@@H]1c1noc(CCC2CC2)n1 [Example 2, 4-((1S,3S)-3-(5-(2-Cyclopropylethyl)-1,2,4-oxadiazol-3-yl)-2,2-dimethylcyclopropyl)benzenesulfonamide]
≤ 100 nM	83 nM	CC1(C)[C@@H](c2ccc(S(N)(=O)=O)cc2)[C@@H]1c1noc(-c2c(F)ccc(F)c2F)n1 [Example 3, 4-((1S,3S)-2,2-Dimethyl-3-(5-(2,3,6-trifluorophenyl)-1,2,4-oxadiazol-3-yl)cyclopropyl) benzenesulfonamide]
100 to 500 nM	230 nM	NS(=O)(=O)c1ccc([C@@H]2C[C@H]2c2nc(-c3cccc(F)c3)no2)cc1 [Example 4, 4-((1R,2R)-2-(3-(3-Fluorophenyl)-1,2,4-oxadiazol-5-yl)cyclopropyl)benzenesulfonamide]
100 to 500 nM	180 nM	CC1(C)[C@H](c2ccc(S(N)(=O)=O)cc2)[C@H]1c1nnc(-c2ccc(F)cc2F)s1 [Example 5, 4-{(1R,3R)-3-[5-(2,4-Difluorophenyl)-1,3,4-thiadiazol-2-yl]-2,2-dimethylcyclopropyl}benzenesulfonamide]
500 to 5000 nM	1100 nM	CC1(C)[C@@H](c2ccc(S(N)(=O)=O)cc2)[C@@H]1c1nnc(-c2ccc(F)cc2F)o1 [Example 6, 4-{(1S,3S)-3-[5-(2,4-Difluorophenyl)-1,3,4-oxadiazol-2-yl]-2,2-dimethylcyclopropyl}benzenesulfonamide]
500 to 5000 nM	910 nM	CC(C)c1noc([C@@H]2[C@@H](c3ccc(S(N)(=O)=O)cc3)C2(F)F)n1 [Example 7, 4-{(1S,3S)-2,2-Difluoro-3-[3-(propan-2-yl)-1,2,4-oxadiazol-5-yl]cyclopropyl}benzenesulfonamide]
100 to 500 nM	500 nM	NS(=O)(=O)c1ccc([C@@H]2C[C@H]2c2ncc(-c3ccccc3)o2)cc1 [Example 8, 4-[(1R,2R)-2-(5-Phenyl-1,3-oxazol-2-yl)cyclopropyl]benzenesulfonamide]
100 to 500 nM	430 nM	NS(=O)(=O)c1ccc([C@@H]2C[C@H]2c2nc(-c3ccccc3)co2)cc1 [Example 9, 4-[(1R,2R)-2-(4-Phenyl-1,3-oxazol-2-yl)cyclopropyl]benzenesulfonamide]
500 to 5000 nM	1200 nM	CC1(C)[C@H](c2ccc(S(N)(=O)=O)cc2)[C@H]1c1cnc(-c2ccccc2)o1 [Example 10, 4-[(1R,3R)-2,2-Dimethyl-3-(2-phenyl-1,3-oxazol-5-yl)cyclopropyl]benzenesulfonamide]
100 to 500 nM	460 nM	CC1(C)[C@H](c2ccc(S(N)(=O)=O)cc2)[C@H]1c1cc(-c2ccccc2)no1 [Example 11, 4-[(1R,3R)-2,2-Dimethyl-3-(3-phenylisoxazol-5-yl)cyclopropyl]benzenesulfonamide]
500 to 5000 nM	910 nM	CC1(C)[C@H](c2ccc(S(N)(=O)=O)cc2)[C@H]1c1cn(-c2ccccc2)nn1 [Example 12, 4-[(1R,3R)-2,2-Dimethyl-3-(1-phenyl-1H-1,2,3-triazol-4-yl)cyclopropyl]benzenesulfonamide]
100 to 500 nM	340 nM	CC1(C)[C@H](c2ccc(S(N)(=O)=O)cc2)[C@H]1c1cnn(-c2cccc(F)c2)c1 [Example 13, 4-{(1R,3R)-3-[1-(3-Fluorophenyl)-1H-pyrazol-4-yl]-2,2-dimethylcyclopropyl}benzenesulfonamide]
100 to 500 nM	200 nM	NS(=O)(=O)c1ccc([C@@H]2C[C@H]2c2nc(-c3cccc(F)c3)cs2)cc1 [Example 14, 4-{(1R,2R)-2-[4-(3-Fluorophenyl)-1,3-thiazol-2-yl]cyclopropyl}benzenesulfonamide]
≤ 100 nM	71 nM	Cc1sc([C@@H]2C[C@H]2c2ccc(S(N)(=O)=O)cc2)nc1-c1ccccc1 [Example 15, 4-[(1R,2R)-2-(5-Methyl-4-phenyl-1,3-thiazol-2-yl)cyclopropyl]benzenesulfonamide]
≤ 100 nM	98 nM	Cc1nc([C@@H]2C[C@H]2c2ccc(S(N)(=O)=O)cc2)sc1-c1ccccc1 [Example 16, 4-[(1R,2R)-2-(4-Methyl-5-phenyl-1,3-thiazol-2-yl)cyclopropyl]benzenesulfonamide]

Reference: patent publication US9840481B2, “Allosteric modulators of nicotinic acetylcholine receptors” (MERCK SHARP & DOHME CORP., priority 2016, dated 2017)
